In brackets after ≈: the same amount, converted by molar mass.
Columns and labels:
[1] = Water solubility test (HPLC); assay type: physicochemical; conditions: double distilled water, thermodynamic from solid
Description: 5 mg of the standard test compound was weighed and dissolved in 5 mL of IPA as a stock solution (1 mg/mL). Double distilled water was then diluted to prepare 1000, 100, 50, 25, 12.5, 10, 5, 2.5, 1.25, 1, 0.5, 0.25, 0.125 μg/mL standard solution calibration lines. 60 μL of each concentration standard solution was used for HPLC analysis. Peak areas were integrated to establish a calibration line, and the accuracy of the analysis method was evaluated through the correlation coefficient (R-squared).
1 mL of double distilled water was weighed into a microcentrifuge tube and the test compound was dissolved. Undissolved compounds were ensured to be still present by vortexing for 5 min and sonicating for 20 min. After centrifugation, the supernatant was filtered through a 0.22 μm PTEF membrane. The […] was analyzed by HPLC and the water solubility was calculated from the peak area.

A549 = experiment: Cytotoxicity screening, PrestoBlue cell viability; assay type: cell-based, human; conditions: A549, lung cancer cells
Description: A549, human non-small cell lung cancer cells, were obtained from the Bioresource Collection and Research Center (BCRC, Taiwan, China). Cells were cultured in F12K culture medium (Gibco, USA) containing 10% FBS (Gibco, USA) and 1% antibiotics (1×penicillin, streptomycin and glutamic acid) (Gibco, USA).
(§1) Cell viability was assessed with PrestoBlue assay (Invitrogen, USA). Cells were seeded into 96-well plates and cultured with test compounds according to the manufacturer's protocol. After 48 hours of exposure to test compounds, the culture medium was discarded and rinsed with PBS. Then, add 10 μL PrestoBlue reagent containing 90 μL culture medium to the cells and incubate the cell plate at 37° C. in the dark for 120 min. Absorbance was measured at the experimental wavelength of 570 nm and the normalized wavelength of 600 nm in a SpectraMax iD3 microplate reader. […] Cell viability was expressed as a percentage relative to the control, and calculated using the following formula: cell viability (%)=[(Absorbance of test wells at 570 nm−Absorbance of only culture medium wells at 570 nm−Absorbance of test wells at 600 nm+Absorbance of only culture medium wells at 600 nm)/Absorbance of the control well at 570 nm−Absorbance of only culture medium wells at 570 nm-Absorbance of the control well at 600 nm+Absorbance nm of only culture medium wells at 600 nm)]×100.

NOZ cells = experiment: Cytotoxicity screening, PrestoBlue cell viability; assay type: cell-based, human; conditions: gallbladder cancer cells
Description: NOZ cells, human gallbladder cancer cells, were obtained from the Japanese Collection of Research Bioresources Cell Bank (JCRB, Japan). Cells were cultured in 90% William's E culture medium (Gibco, USA), 10% fetal bovine serum (FBS) (Gibco, USA), and 1% antibiotics (1×penicillin, streptomycin and glutamine) (Gibco, USA).
as §1

BxPC-3 = experiment: Cytotoxicity screening, PrestoBlue cell viability; assay type: cell-based, human; conditions: BxPC-3, pancreatic cancer cells
Description: BxPC-3, human pancreatic adenocarcinoma cells, were obtained from the Bioresource Collection and Research Center (BCRC, Taiwan, China). Cells were cultured in RPMI 1640 culture medium (Gibco, USA) containing 10% FBS (Gibco, USA) and 1% antibiotics (1×penicillin, streptomycin and glutamic acid) (Gibco, USA).
as §1

HuCCT1 cells = experiment: Cytotoxicity screening, PrestoBlue cell viability; assay type: cell-based, human; conditions: HuCCT1, 20 μg/mL
Description: HuCCT1 cells, human cholangiocarcinoma cells, were obtained from iCell Bioscience Inc. (iCell, China). Cells were cultured in 90% RPMI 1640 culture medium (Gibco, USA), 10% fetal bovine serum (FBS) (Gibco, USA), and 1% antibiotics (1×penicillin, streptomycin and glutamine) (Gibco, USA).
as §1

MCF-7 = experiment: Cytotoxicity screening, PrestoBlue cell viability; assay type: cell-based, human; conditions: MCF-7, breast cancer cells
Description: MCF7, human breast cancer, was obtained from the Bioresource Collection and Research Center (BCRC, Taiwan, China). Cells were cultured in minimal essential Eagle's culture medium (FBS) (Gibco, USA) containing 2 mM L-glutamic acid, 1.5 mg/mL sodium bicarbonate, 0.1 mM non-essential amino acids, 1.0 mM sodium pyruvate (Gibco, USA), 10% fetal bovine serum (Gibco, USA) and 1% antibiotics (1×penicillin, streptomycin and glutamic acid) (Gibco, USA).
as §1, with “Then, add 10 μL PrestoBlue reagent containing 90 μL culture medium to the cells and incubate the cell plate at 37° C. in the dark for 120 min.” left out

HuH28 cells = experiment: Cytotoxicity screening, PrestoBlue cell viability; assay type: cell-based, human; conditions: HuH28, 20 μg/mL
Description: HuH28 cells, human liver, and cholangiocarcinoma cells, were obtained from the Japanese Collection of Research Bioresources Cell Bank (JCRB, Japan). Cells were cultured in 90% RPMI 1640 culture medium (Gibco, USA), 10% fetal bovine serum (FBS) (Gibco, USA), and 1% antibiotics (1×penicillin, streptomycin and glutamine) (Gibco, USA).
as §1

AML12 cells = experiment: Cytotoxicity screening, PrestoBlue cell viability; assay type: cell-based, mouse; conditions: AML12, normal hepatocytes
Description: AML12 cells, alpha mouse liver 12, were obtained from the American Type Culture Collection (ATCC, USA). Cells were cultured in DMEM: F12 culture medium (Gibco, USA), 10% fetal bovine serum (FBS) (Gibco, USA), 10 μg/mL insulin, 5.5 μg/mL transferrin, 5 ng/ml selenium, 40 ng/ml dexamethasone (Gibco, USA), and 1% antibiotics (1×penicillin, streptomycin and glutamic acid) (Gibco, USA).
as §1, with “Then, add 10 μL PrestoBlue reagent containing 90 μL culture medium to the cells and incubate the cell plate at 37° C. in the dark for 120 min.” left out

PANC-1 = experiment: Cytotoxicity screening, PrestoBlue cell viability; assay type: cell-based, human; conditions: PANC-1, pancreatic cancer cells
Description: PANC-1, human pancreatic epithelioid carcinoma, was obtained from the American Type Culture Collection (ATCC, USA). Cells were cultured in DMEM culture medium (Gibco, USA) containing 10% FBS (Gibco, USA) and 1% antibiotics (1×penicillin, streptomycin and glutamic acid) (Gibco, USA).
(§2) Cell viability was assessed with PrestoBlue assay (Invitrogen, USA). Cells were seeded into 96-well plates and cultured with test compounds according to the manufacturer's protocol. After 48 hours of exposure to test compounds, the culture medium was discarded and rinsed with PBS. Then, add 10 μL PrestoBlue reagent containing 90 μL culture medium to the cells and incubate the cell plate at 37° C. in the dark for 120 min. Absorbance was measured at the experimental wavelength of 570 nm and the normalized wavelength of 600 nm in a SpectraMax iD3 microplate reader. The result was corrected by subtracting the blank value. Cell viability was expressed as a percentage relative to the control, and calculated using the following formula: cell viability (%)=[(Absorbance of test wells at 570 nm−Absorbance of only culture medium wells at 570 nm−Absorbance of test wells at 600 nm+Absorbance of only culture medium wells at 600 nm)/Absorbance of the control well at 570 nm−Absorbance of only culture medium wells at 570 nm-Absorbance of the control well at 600 nm+Absorbance nm of only culture medium wells at 600 nm)]×100.

Caco-2 = experiment: Cytotoxicity screening, PrestoBlue cell viability; assay type: cell-based; conditions: Caco-2, colon cancer cells
Description: Caco-2, colorectal adenocarcinoma, was obtained from the Bioresource Collection and Research Center ([…]). Cells were cultured in minimal essential Eagle's culture medium (FBS) (Gibco, USA) containing 2 mM L-glutamic acid, 1.5 mg/mL sodium bicarbonate, 0.1 mM non-essential amino acids, 1.0 mM sodium pyruvate (Gibco, USA), 20% fetal bovine serum (Gibco, USA), and 1% antibiotics (1×penicillin, streptomycin and glutamic acid) (Gibco, USA).
as §1, with “Then, add 10 μL PrestoBlue reagent containing 90 μL culture medium to the cells and incubate the cell plate at 37° C. in the dark for 120 min.” left out

HCT-15 = experiment: Cytotoxicity screening, PrestoBlue cell viability; assay type: cell-based; conditions: HCT-15, colon cancer cells
Description: HCT-15, colorectal adenocarcinoma, was obtained from the Bioresource Collection and Research Center (BCRC, Taiwan, China). Cells were cultured in RPMI 1640 culture medium (Gibco, USA) containing 10% fetal bovine serum (FBS) (Gibco, USA) and 1% antibiotics (1×penicillin, streptomycin and glutamic acid) (Gibco, USA).
as §1

Vero E6 cells = experiment: Cytotoxicity screening, PrestoBlue cell viability; assay type: cell-based, cercopithecus aethiops; conditions: Vero E6, normal kidney cells
Description: Vero E6 cells, cercopithecus aethiops renal epithelial cells, were obtained from the American Type Culture Collection (ATCC, USA). Cells were cultured in Dulbecco's Modified Eagle Medium (DMEM) (Gibco, USA) containing 10% FBS (Gibco, USA), 100 U/mL penicillin, and 100 μg/mL streptomycin (Gibco, USA). Cell viability was assessed with PrestoBlue assay (Invitrogen, USA). Cells were seeded into 96-well plates and cultured with test compounds according to the manufacturer's protocol. After 48 hours of exposure to test compounds, the culture medium was discarded and rinsed with PBS. Then, add 10 μL PrestoBlue reagent containing 90 μL culture medium to the cells and incubate the cell plate at 37° C. in the dark for 120 min. Absorbance was measured at the experimental wavelength of 570 nm and the normalized wavelength of 600 nm in a SpectraMax iD3 microplate reader. […] Cell viability was expressed as a percentage relative to the control, and calculated using the following formula: cell viability (%)=[(Absorbance of test wells at 570 nm−Absorbance of only culture medium wells at 570 nm−Absorbance of test wells at 600 nm+Absorbance of only culture medium wells at 600 nm)/Absorbance of the control well at 570 nm−Absorbance of only culture medium wells at 570 nm-Absorbance of the control well at 600 nm+Absorbance nm of only culture medium wells at 600 nm)]×100.

AsPC-1 = experiment: Cytotoxicity screening, PrestoBlue cell viability; assay type: cell-based, human; conditions: AsPC-1, pancreatic cancer cells
Description: AsPC-1, human pancreatic adenocarcinoma ascites metastatic cells, were obtained from the Bioresource Collection and Research Center (BCRC, Taiwan, China). Cells were cultured in RPMI 1640 culture medium (Gibco, USA) containing 10% FBS (Gibco, USA) and 1% antibiotics (1×penicillin, streptomycin and glutamic acid) (Gibco, USA).
as §1

[2] = system: normal cells or cancer cells; experiment: Cytotoxicity tests in various cell lines (summary); assay type: cell-based; conditions: normal cells and cancer cells, various cell lines (Table 3)
Description: as §2
Taking the linker of the present invention (n=2; X, Y, Z=O; R^1, R^2, R^4=H; R^3=CH3) as an example, the linker has significant advantages in terms of synthetic elastic properties. […]

CC(C)=CCC/C(C)=C/CC/C(C)=C/CO [Farnesol, reference compound]
solubility [1]: 87.4 µg/mL (≈ 393 µM)

C/C(=C\CO)CC/C=C(\C)CCC(O)C(C)C(=O)O (stereo not drawn) [Linker of the present invention, (6E,10E)-3,12-dihydroxy-2,6,10-trimethyldodec-6,10-dienoic acid]
20 μg/mL 48-hour survival rate (A549): 82.28 ± 5.53% | 20 μg/mL 48-hour survival rate (NOZ cells): 107.26 ± 14.11% | 20 μg/mL 48-hour survival rate (BxPC-3): 91.33 ± 5.93% | 20 μg/mL 48-hour survival rate (HuCCT1 cells): 110.04 ± 0.17% | 20 μg/mL 48-hour survival rate (MCF-7): 89.45 ± 8.95% | solubility [1]: 780 µg/mL (≈ 2890 µM) | 20 μg/mL 48-hour survival rate (HuH28 cells): 87.92 ± 5.14% | 20 μg/mL 48-hour survival rate (AML12 cells): 91.99 ± 2.6% | 20 μg/mL 48-hour survival rate (PANC-1): 106.67 ± 8.24% | 20 μg/mL 48-hour survival rate (Caco-2): 99.94 ± 3.16% | 20 μg/mL 48-hour survival rate (HCT-15): 88.96 ± 15.45% | 20 μg/mL 48-hour survival rate (Vero E6 cells): 96.28 ± 3.66% | 20 μg/mL 48-hour survival rate (AsPC-1): 93.02 ± 5.01% | cytotoxicity [2]: not cytotoxic
